# Results as given in publication PMC5988308, “Rhodanine derivatives as potent anti-HIV and anti-HSV microbicides” (PLoS ONE, 2018).
# Read-outs that look alike come from different tables or passages of the source.
# Tests used:
# Format in all cases: cell-based
# [1] = test system: recombinant HIV-1 integrase Y143R; assay: Antiviral activity on human CD4+ T lymphocytes, integrase mutant Y143R; details: Human immunodeficiency virus 1, read-out: Y143R EC50
# HIV-1 NL 4.3 WT = assay: Antiviral activity on human CD4+ T lymphocytes, NL4.3 WT; details: Human immunodeficiency virus 1; human CD4+ T lymphocytes; read-out: NL 4.3 WT EC50
# Experimental: (§1) The antiviral activity and cytotoxicity of compounds 2, 9e and 9f was tested also on freshly purified human CD4^+ T lymphocytes obtained from healthy blood donors (informed consent available) as described previously on HIV laboratory strain NL4.3 and AD8 [33, 34].
# human CD4+ T lymphocytes = assay: Cytotoxicity on human CD4+ T lymphocytes
# Experimental: as §1
# [2] = Cytotoxicity on human CD4+ T lymphocytes
# Experimental: as §1
# HSV-1 = HSV-1 plaque reduction assay on Vero cells; details: read-out: HSV-1 EC50, Vero cells
# Experimental: Clinical isolates of HSV-1 and HSV-2 were kindly provided by Prof. M. Pistello, University of Pisa, Italy. HSV-1 and HSV-2 strains were propagated and titrated by plaque assay on Vero cells. A HSV-2 strain with phenotypic resistance to acyclovir was generated by serial passage in the presence of increasing concentrations of acyclovir, as previously described.
# The effect of the rhodanine derivatives on HSV infection was evaluated by plaque reduction assay. Vero cells were pre-plated 24 h in advance in 24-well plates at a density of […]. Increasing concentrations of compounds were mixed with HSV-2 (MOI 0.001 pfu/cell) or HSV-2 acyclovir resistant (MOI 0.001) or HSV-1 (MOI 0.0005) or and incubated for 1 hour at 37°C. The mixtures were subsequently added to the cells, which were then incubated at 37°C for 2 h. The virus inoculum was then removed and the cells washed and overlaid with a medium containing 1.2% methylcellulose (Sigma). After further incubation at 37°C for 24 h (HSV-2 and HSV-2 R Acy) or 48 h (HSV-1), cells were fixed and stained with 0.1% crystal violet in 20% ethanol and viral plaques counted. The effective concentration producing 50% reduction (EC50) and 90% reduction (EC90) in plaque formation was determined using Prism software by comparing drug-treated with wells treated with medium and solvent. The selectivity index (SI) was calculated by dividing the CC50 by the EC50 value.
# All results are presented as the mean values from three independent experiments. The EC50 values for inhibition curves were calculated by regression analysis using the software GraphPad Prism (GraphPad Software, San Diego, California, U.S.A.) by fitting a variable slope-sigmoidal dose–response curve. Acyclovir was purchased from Sigma Aldrich (Milan, Italy).
# HIV-1 AD8 = assay: Inhibition of antiviral activity by fetal bovine serum (TZM-bl, AD8); details: FBS 0% to 10%
# Experimental: To evaluate the binding of compounds to plasma proteins also in a cell based assay, the infection with the HIV laboratory strain AD8 was performed in absence or in presence of different concentrations of Fetal Bovine Serum (FBS): 2%, 5% and 10%. The representative compound 2 was pre-incubated at different concentrations ranging from 10 μM to 3.2 nM with 300 TCID50 /mL of AD8 in DMEM supplemented with 50 μg/mL penicillin, 50 μg/mL streptomycin, 30 μg/mL DEAE-dextran and FBS at the concentration described above. Maraviroc was used as control. After an hour the mixture was added to 40.000 TZM-bl cells/well plated in a 96-well plate and after two days the infection was quantified using a CPRG assay (Roche) as previously described.
# HIV-1 AD8 WT = assay: Antiviral activity on human CD4+ T lymphocytes, AD8 WT; details: Human immunodeficiency virus 1; human CD4+ T lymphocytes; read-out: AD8 WT EC50
# Experimental: as §1
smiles,measurement,setting,value
O=C(O)c1ccc(-c2ccc(/C=C3\SC(=S)N(Cc4ccc(Cl)cc4)C3=O)o2)cc1O [Compound 2],EC50,[1],8 ± 3 nM
same,EC50,HIV-1 NL 4.3 WT,13 ± 3 nM
same,SI (Selectivity Index),human CD4+ T lymphocytes,62
same,CC50,[2],810 ± 20 nM
same,EC50,"HSV-1; Human alphaherpesvirus 1, Vero",132 nM
same,EC50,HSV-1,131 ± 59.9 nM
same,effect of FBS concentration on antiviral activity,HIV-1 AD8,progressive loss of activity
same,EC50,HIV-1 AD8 WT,11 ± 1 nM
